Row | melting point [°C] | SMILES
1 | 170 to 172 | CS(=O)(=O)c1ccc(-n2nc(C(F)(F)F)cc2-c2ccc(C#Cc3ccccc3)cc2)cc1 [Example 15, 1-[4-(Methylsulfonyl)Phenyl]-5-[4-(Phenylethynyl)Phenyl]-3-Trifluoromethyl-1H-Pyrazole]
2 | 96 to 98 | CCCCC#Cc1ccc(-c2cc(C(F)(F)F)nn2-c2ccc(S(C)(=O)=O)cc2)cc1 [Example 16, 5-[4-(1-Hexyn-1-yl)Phenyl]-1-[4-(Methylsulfonyl)Phenyl]-3-Trifluoromethyl-1H-Pyrazole]
3 | 87 to 90 | CS(=O)(=O)c1ccc(-n2nc(C(F)(F)F)cc2-c2ccc(C#CCCCO)cc2)cc1 [Example 17, 5-[4-(5-Hydroxy-1-Pentyn-1-yl)Phenyl]-1-[4-(Methylsulfonyl)Phenyl]-3-Trifluoromethyl-1H-Pyrazole]
